Common to all, as to assay type: functional
Experiment [1] deals with Staphylococcus aureus. Briefly: Antibacterial activity against methicillin-susceptible Staphylococcus aureus assessed as percent resistant isolates by broth microdilution method. For orientation: In broth dilution the organism is exposed to a series of concentrations in liquid medium.
Experiment [2] concerns Staphylococcus aureus. The experiment can be described thus: Antibacterial activity against methicillin-resistant Staphylococcus aureus assessed as percent resistant isolates by broth microdilution method.
Experiment [3] has as its system Staphylococcus aureus. Briefly: Antibacterial activity against linezolid-nonsusceptible Staphylococcus aureus by broth microdilution method.
The test system of experiment [4] is Staphylococcus. The experiment can be described thus: Antibacterial activity against methicillin-resistant coagulase-negative Staphylococcus by broth microdilution method.
Experiment [5] in a line: Selectivity ratio of MIC90 for vancomycin-resistant Enterococcus faecium to MIC90 for vancomycin-resistant Enterococcus faecalis.
The subject of experiment [6] is Enterococcus faecalis. Briefly: Antibacterial activity against vancomycin-susceptible Enterococcus faecalis by broth microdilution method.
Experiment [7] relates to Staphylococcus. Briefly: Antibacterial activity against Staphylococcus by agar dilution technique.
In experiment [8] the test system is Staphylococcus aureus. Briefly: Selectivity ratio of MBC to MIC for Staphylococcus aureus.
Experiment [9] is described as follows: Selectivity ratio of MIC50 for vancomycin-resistant Enterococcus faecium to MIC50 for vancomycin-resistant Enterococcus faecalis.
Experiment [10] has as its system Enterococcus faecalis. The experiment can be described thus: Antibacterial activity against vancomycin-resistant Enterococcus faecalis by broth microdilution method.
Experiment [11] deals with Staphylococcus. The experiment can be described thus: Antibacterial activity against methicillin-susceptible coagulase-negative Staphylococcus by broth microdilution method.
Experiment [12] deals with Staphylococcus aureus. The experiment can be described thus: Selectivity ratio of MIC50 for methicillin-susceptible Staphylococcus aureus to MIC50 for methicillin-resistant Staphylococcus aureus.
Experiment [13] can be described thus: Selectivity ratio of MIC50 for vancomycin-susceptible Enterococcus faecium to MIC50 for vancomycin-susceptible Enterococcus faecalis.
Experiment [14] relates to Staphylococcus aureus. Briefly: Antibacterial activity against methicillin-susceptible Staphylococcus aureus by broth microdilution method.
Experiment [15] deals with Staphylococcus. The experiment can be described thus: Selectivity ratio of MBC to MIC for coagulase-negative Staphylococcus.
The test system of experiment [16] is Enterococcus faecium. Briefly: Antibacterial activity against vancomycin-susceptible Enterococcus faecium by broth microdilution method.
Experiment [17] deals with Enterococcus faecalis. The experiment can be described thus: Selectivity ratio of MBC to MIC for Enterococcus faecalis.
Experiment [18] concerns Staphylococcus aureus. Briefly: Antibacterial activity against methicillin-resistant Staphylococcus aureus by broth microdilution method.
The next experiment deals with Enterococcus. Briefly: Antibacterial activity against Enterococcus by agar dilution technique.
Experiment [19] relates to Enterococcus faecium. Briefly: Selectivity ratio of MBC to MIC for Enterococcus faecium.
The test system of experiment [20] is Enterococcus faecium. The experiment can be described thus: Antibacterial activity against vancomycin-resistant Enterococcus faecium by broth microdilution method.
The test system of experiment [21] is Staphylococcus. Briefly: Antibacterial activity against methicillin-susceptible coagulase-negative Staphylococcus assessed as percent susceptible isolates by broth microdilution method.
Experiment [22] has as its system Staphylococcus. Briefly: Antibacterial activity against methicillin-resistant coagulase-negative Staphylococcus assessed as percent susceptible isolates by broth microdilution method.
The test system of experiment [23] is Enterococcus faecium. The experiment can be described thus: Antibacterial activity against vancomycin-susceptible Enterococcus faecium assessed as percent resistant isolates by broth microdilution method.
In experiment [24] the test system is Enterococcus faecalis. The experiment can be described thus: Antibacterial activity against vancomycin-susceptible Enterococcus faecalis assessed as percent susceptible isolates by broth microdilution method.
Experiment [25] concerns Enterococcus faecalis. The experiment can be described thus: Antibacterial activity against vancomycin-resistant Enterococcus faecalis assessed as percent resistant isolates by broth microdilution method.
Experiment [26] relates to Enterococcus faecium. The experiment can be described thus: Antibacterial activity against vancomycin-resistant Enterococcus faecium assessed as percent susceptible isolates by broth microdilution method.
Experiment [27] has as its system Enterococcus faecium. Briefly: Antibacterial activity against vancomycin-resistant Enterococcus faecium assessed as percent resistant isolates by broth microdilution method.
Experiment [28] relates to Staphylococcus. Briefly: Antibacterial activity against methicillin-resistant coagulase-negative Staphylococcus assessed as percent resistant isolates by broth microdilution method.
Experiment [29] concerns Enterococcus faecalis. Briefly: Antibacterial activity against vancomycin-susceptible Enterococcus faecalis assessed as percent resistant isolates by broth microdilution method.
Experiment [30] concerns Enterococcus faecalis. Briefly: Antibacterial activity against vancomycin-resistant Enterococcus faecalis assessed as percent susceptible isolates by broth microdilution method.
Experiment [31] has as its system Enterococcus faecium. The experiment can be described thus: Antibacterial activity against vancomycin-susceptible Enterococcus faecium assessed as percent susceptible isolates by broth microdilution method.

≈ marks a conversion by molar mass, not a printed value.

For the compound `CCC[C@@H]1C[C@@H](C(=O)N[C@@H]([C@H]2O[C@H](SC)[C@H](O)[C@@H](O)[C@H]2O)[C@H](C)Cl)N(C)C1` [CLINDAMYCIN], the Activity with Staphylococcus aureus [1] was found to be 2.3%; in the experiment on Staphylococcus aureus [2] it was 43.8%.
For the compound `CC[C@H]1OC(=O)[C@H](C)[C@@H](O[C@H]2C[C@@](C)(OC)[C@@H](O)[C@H](C)O2)[C@H](C)[C@@H](O[C@@H]2O[C@H](C)C[C@H](N(C)C)[C@H]2O)[C@](C)(O)C[C@@H](C)C(=O)[C@H](C)[C@@H](O)[C@]1(C)O` [ERYTHROMYCIN], the Activity with Staphylococcus aureus [1] turned out to be 16.3%; in the experiment with Staphylococcus aureus [2], 87.5%.
With `CCc1c(Cl)c(O)c(Cl)c(O)c1C(=O)O[C@H]1[C@H](O)[C@H](OC)[C@H](OC/C2=C\C=C\C[C@H](O)/C(C)=C/[C@H](CC)[C@@H](O[C@@H]3OC(C)(C)[C@@H](OC(=O)C(C)C)[C@H](O)[C@@H]3O)/C(C)=C/C(C)=C/C[C@@H]([C@@H](C)O)OC2=O)O[C@@H]1C` [FIDAXOMICIN], the MIC with Staphylococcus aureus [3] was more than 4 µg/mL; with Enterococcus faecalis [6], 2 µg/mL (≈ 1.89 µM); against Enterococcus faecalis [10], 2 µg/mL (≈ 1.89 µM). In addition, the MIC50 was 1 µg/mL (≈ 0.945 µM) in the experiment on Staphylococcus [4]; 2 µg/mL (≈ 1.89 µM) against Enterococcus faecalis [6]; 2 µg/mL (≈ 1.89 µM) against Enterococcus faecalis [10]; 2 µg/mL (≈ 1.89 µM) against Staphylococcus [11]; 8 µg/mL (≈ 7.56 µM) against Staphylococcus aureus [14]; 4 µg/mL (≈ 3.78 µM) in the experiment on Enterococcus faecium [16]. The MIC50 against Staphylococcus aureus [18] and with Enterococcus faecium [20] was 4 µg/mL (≈ 3.78 µM) throughout. Also, the MIC90 stood at 4 µg/mL (≈ 3.78 µM) against Staphylococcus [4]; 4 µg/mL (≈ 3.78 µM) in the experiment on Enterococcus faecalis [6]; 2 µg/mL (≈ 1.89 µM) in the experiment with Staphylococcus [7]; 2 µg/mL (≈ 1.89 µM) against Enterococcus faecalis [10]; 4 µg/mL (≈ 3.78 µM) with Staphylococcus [11]; 8 µg/mL (≈ 7.56 µM) against Staphylococcus aureus [14]. The MIC90 against Enterococcus faecium [16] amounted to 4 µg/mL (≈ 3.78 µM); against Staphylococcus aureus [18] it was 8 µg/mL (≈ 7.56 µM); in the experiment on Enterococcus, 8 µg/mL (≈ 7.56 µM); with Enterococcus faecium [20], 4 µg/mL (≈ 3.78 µM). Further, the Ratio (in experiment [5]; in experiment [9]; with Staphylococcus aureus [12]; in experiment [13]) was 2 throughout. In addition, the Selectivity ratio result with Staphylococcus aureus [8], in the experiment with Staphylococcus [15], in the experiment with Enterococcus faecalis [17] and with Enterococcus faecium [19] was “>=16” in each case.
On to `C[C@H]1COc2c(N3CCN(C)CC3)c(F)cc3c(=O)c(C(=O)O)cn1c23.C[C@H]1COc2c(N3CCN(C)CC3)c(F)cc3c(=O)c(C(=O)O)cn1c23.O` [LEVOFLOXACIN], for which the Activity with Staphylococcus aureus [1] stood at 9.3%; with Staphylococcus aureus [2], 56.3%.
Take `CO[C@H]1/C=C/O[C@@]2(C)Oc3c(C)c(O)c4c(O)c(c(/C=N/N5CCN(C)CC5)c(O)c4c3C2=O)NC(=O)/C(C)=C\C=C\[C@H](C)[C@H](O)[C@@H](C)[C@@H](O)[C@@H](C)[C@H](OC(C)=O)[C@@H]1C` [RIFAMPIN]: the Activity is 2.3% in the experiment on Staphylococcus aureus [1] and 18.8% in the experiment with Staphylococcus aureus [2].
As for `CN[C@H](CC(C)C)C(=O)N[C@H]1C(=O)N[C@@H](CC(N)=O)C(=O)N[C@H]2C(=O)N[C@H]3C(=O)N[C@H](C(=O)N[C@H](C(=O)O)c4cc(O)cc(O)c4-c4cc3ccc4O)[C@H](O)c3ccc(c(Cl)c3)Oc3cc2cc(c3O[C@@H]2O[C@H](CO)[C@@H](O)[C@H](O)[C@H]2O[C@H]2C[C@](C)(N)[C@H](O)[C@H](C)O2)Oc2ccc(cc2Cl)[C@H]1O` [VANCOMYCIN], the MIC50 against Staphylococcus [4] was 2 µg/mL (≈ 1.38 µM); in the experiment on Enterococcus faecalis [6] it was 1 µg/mL (≈ 0.69 µM); against Enterococcus faecalis [10], more than 16 µg/mL; with Staphylococcus [11], 1 µg/mL (≈ 0.69 µM); with Staphylococcus aureus [14], 1 µg/mL (≈ 0.69 µM); with Enterococcus faecium [16], more than 0.5 µg/mL. Moreover, the MIC50 is 1 µg/mL (≈ 0.69 µM) against Staphylococcus aureus [18] and more than 16 µg/mL with Enterococcus faecium [20]. In addition, the MIC90 was 2 µg/mL (≈ 1.38 µM) in the experiment on Staphylococcus [4]; 1 µg/mL (≈ 0.69 µM) in the experiment with Enterococcus faecalis [6]; more than 16 µg/mL in the experiment on Enterococcus faecalis [10]; 2 µg/mL (≈ 1.38 µM) against Staphylococcus [11]; 1 µg/mL (≈ 0.69 µM) against Staphylococcus aureus [14]; 1 µg/mL (≈ 0.69 µM) with Enterococcus faecium [16]. Further, the MIC90 is 16 µg/mL (≈ 11 µM) against Staphylococcus aureus [18] and more than 16 µg/mL in the experiment on Enterococcus faecium [20]. Besides, the Activity is listed as 100% with Staphylococcus [21]; 100% in the experiment on Staphylococcus [22]; 0% in the experiment with Enterococcus faecium [23]; 100% with Enterococcus faecalis [24]; 100% in the experiment on Enterococcus faecalis [25]; 0% with Enterococcus faecium [26]. Moreover, the Activity with Enterococcus faecium [27] is on record as 100%; in the experiment on Staphylococcus [28], 0%; with Staphylococcus aureus [1] it was 0%; in the experiment on Staphylococcus aureus [2] it was 15.6%; with Enterococcus faecalis [29], 0%; with Enterococcus faecalis [30], 0%. Also, the Activity with Enterococcus faecium [31] is on record as 100%. Moreover, the MIC with Enterococcus faecalis [6] was 1 µg/mL (≈ 0.69 µM); against Enterococcus faecalis [10] it was more than 16 µg/mL; in the experiment on Enterococcus faecium [20] it was more than 16 µg/mL.

The term MIC denotes the lowest concentration found to suppress growth. Lower therefore signals a more susceptible organism. As usually defined, the MIC50 is an inhibitory concentration at the 50% level, which refers to growth in some studies and to a panel of isolates in others. What is called MIC90 is the lowest concentration that inhibits either 90% of growth or 90% of the strains tested, depending on the study. A lower MIC90 goes with greater potency.

The values are drawn from ChEMBL document CHEMBL1255485, “In vitro activity of fidaxomicin (OPT-80) tested against contemporary clinical isolates of Staphylococcus spp. and Enterococcus spp” (2010).
